According to publication PMC7321319, “Comparative Molecular Transporter Properties of Cyclic Peptides Containing Tryptophan and Arginine Residues Formed through Disulfide Cyclization” (Molecules, 2020):

Test system: LLC-PK1, CCRF-CEM, CRL-1739, MDA-MB-231 and SKOV-3 cell lines
Test: MTS cell viability assay, statements over the whole cell line panel
Type: cell-based
Conditions: Dox 5 µM, 24 and 72 h, 37 °C, n = 3
Method: To evaluate the cytotoxicity of synthesized linear (C(WR)xC) and cyclic [C(WR)xC] […] Doxorubicin (Dox, 5 µM) was used as a positive control.
The in vitro cytotoxicity of the peptides was evaluated using the human leukemia carcinoma cell line (CCRF-CEM), normal kidney cell line (LLC-PK1), gastric adenocarcinoma (CRL-1739), ovarian (SKOV-3), and breast carcinoma (MDA-MB-231) cell lines to determine the toxicity of the peptides according to the previously reported procedure [17]. CCRF-CEM cells were seeded at 50,000 cells in 0.1 mL per well in 96-well plates. Other cells were seeded at 5,000 cells in 0.1 mL per well in 96-well plates. All cell lines were seeded in RPMI-1640 medium (pH 7.4) containing FBS (10%), 24 h prior to the experiment. […] This generates formazan crystals which are soluble in cell culture medium and can be measured at 490 nm. Cell viability was then determined by measuring the fluorescence intensity at 490 nm using a SpectraMaxM2 microplate spectrophotometer (Molecular Devices, San Jose, CA, USA). The percentage of cell survival was calculated as [(OD value of cells treated with the test mixture of compounds)−(OD value of culture medium)]/[(OD value of control cells) − (OD value of culture medium)] × 100%.

Structure (SMILES): COc1cccc2c1C(=O)c1c(O)c3c(c(O)c1C2=O)C[C@@](O)(C(=O)CO)C[C@@H]3O[C@H]1C[C@H](N)[C@H](O)[C@H](C)O1 [Dox, Doxorubicin]
- cytotoxicity (percentage of cell survival), positive control: cytotoxic even at 5 µM
